Results reported in PubChem BioAssay AID292 (DTP/NCI, 2004).
Where “and” joins values, the source holds several entries; their conditions need not be identical. Identical values can stand only once. Inconclusive results and toxic doses are left out. Rule for the calls: active = survival T/C of 150% or more; inactive = T/C below 125% in these data.

Tested on: B6C3F1 mice, ip Sarcoma M5076, median survival T/C
Test: NCI In Vivo Anticancer Drug Screen. Data for tumor model Sarcoma M5076 (intraperitoneal) in B6C3F1 mice
Conditions: endpoint: median survival time, higher = longer survival
In short: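 Antitumour effect is judged in tumour-bearing mice by comparing survival after compound dosing against vehicle-only animals, reported as T/C.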

[1] = dose: 50.0 mg/kg/injection, schedule: Q04DX004 (ip), vehicle: saline with Tween-80
[2] = dose: 100.0 mg/kg/injection, schedule: Q04DX004 (ip), vehicle: saline with Tween-80
[3] = dose: 200.0 mg/kg/injection, schedule: Q04DX004 (ip), vehicle: saline with Tween-80
[4] = dose: 400.0 mg/kg/injection, schedule: Q04DX004 (ip), vehicle: saline with Tween-80
[5] = dose: 25.0 mg/kg/injection, schedule: Q04DX004 (ip), vehicle: Klucel (hydroxypropylcellulose) (HPC)
[6] = dose: 50.0 mg/kg/injection, schedule: Q04DX004 (ip), vehicle: Klucel (hydroxypropylcellulose) (HPC)
[7] = dose: 25.0 mg/kg/injection, schedule: Q04DX004 (ip), vehicle: suspension in saline
[8] = dose: 25.0 mg/kg/injection, schedule: Q04DX004 (ip), vehicle: saline with Tween-80
[9] = dose: 50.0 mg/kg/injection, schedule: Q04DX004 (ip), vehicle: saline
[10] = dose: 100.0 mg/kg/injection, schedule: Q04DX004 (ip), vehicle: Klucel (hydroxypropylcellulose) (HPC)
[11] = dose: 200.0 mg/kg/injection, schedule: Q04DX004 (ip), vehicle: Klucel (hydroxypropylcellulose) (HPC)
[12] = dose: 400.0 mg/kg/injection, schedule: Q04DX004 (ip), vehicle: Klucel (hydroxypropylcellulose) (HPC)
[13] = dose: 6.25 mg/kg/injection, schedule: Q04DX004 (ip), vehicle: Klucel (hydroxypropylcellulose) (HPC)
[14] = dose: 12.5 mg/kg/injection, schedule: Q04DX004 (ip), vehicle: Klucel (hydroxypropylcellulose) (HPC)

Measured: T/C

Cc1ccc2c(c1)C1(SC(C)C(=O)N1c1ccc(Cl)cc1)C(=O)N2 (stereo not given)
inactive: [1] 96 % of control | [2] 101 % of control | [3] 98 % of control | [4] 93 % of control | dose: 800.0 mg/kg/injection, schedule: Q04DX004 (ip), vehicle: saline with Tween-80 86 % of control

Cn1c2ccccc2c2ccc3c(c21)C(=O)C=CC3=O
inactive: [5] 93 % of control | [6] 98 % of control

Nc1nc(=O)nc2[nH]c3c4cccc5cccc(c3nc12)c54 (tested in a mixture with another compound)
inactive: dose: 18.75 mg/kg/injection, schedule: Q04DX004 (ip), vehicle: Klucel (hydroxypropylcellulose) (HPC) 104 % of control | dose: 37.5 mg/kg/injection, schedule: Q04DX004 (ip), vehicle: Klucel (hydroxypropylcellulose) (HPC) 102 % of control | dose: 75.0 mg/kg/injection, schedule: Q04DX004 (ip), vehicle: Klucel (hydroxypropylcellulose) (HPC) 104 % of control | dose: 150.0 mg/kg/injection, schedule: Q04DX004 (ip), vehicle: Klucel (hydroxypropylcellulose) (HPC) 98 % of control | dose: 300.0 mg/kg/injection, schedule: Q04DX004 (ip), vehicle: Klucel (hydroxypropylcellulose) (HPC) 94 % of control

CN(C)[C@@H]1C(=O)C(C(N)=O)=C(O)[C@@]2(O)C(=O)C3=C(O)c4c(O)ccc(Cl)c4[C@@](C)(O)[C@H]3C[C@@H]12
inactive: [7] 86 % of control | dose: 50.0 mg/kg/injection, schedule: Q04DX004 (ip), vehicle: suspension in saline 96 % of control | dose: 100.0 mg/kg/injection, schedule: Q04DX004 (ip), vehicle: suspension in saline 91 % of control

O=C1N[C@@H]2C(=C[C@H](O)[C@@H](O)[C@H]2O)c2cc3c(c(O)c21)OCO3
inactive: dose: 0.38 mg/kg/injection, schedule: Q01DX009 (ip), vehicle: saline with Tween-80 111 % of control | dose: 0.38 mg/kg/injection, schedule: Q04DX004 (ip), vehicle: saline with Tween-80 91 % of control | dose: 0.75 mg/kg/injection, schedule: Q04DX004 (ip), vehicle: saline with Tween-80 102 % of control and 110 % of control | dose: 1.5 mg/kg/injection, schedule: Q01DX009 (ip), vehicle: saline with Tween-80 123 % of control | dose: 1.5 mg/kg/injection, schedule: Q04DX004 (ip), vehicle: saline with Tween-80 96 % of control and 119 % of control | dose: 3.0 mg/kg/injection, schedule: Q04DX004 (ip), vehicle: saline with Tween-80 107 % of control

S=c1sc2ccccc2n1CN1CCOCC1
inactive: [8] 105 % of control and 107 % of control | [1] 95 % of control and 111 % of control | [2] 90 % of control and 104 % of control | [3] 96 % of control and 97 % of control

COC(C(=O)C(O)C(C)O)C1CC2C=C3C=C(OC4CC(OC5CC(O)C(OC)C(C)O5)C(OC(C)=O)C(C)O4)C(C)C(=O)C3=C(O)C2=C(O)C1OC1CC(OC2CC(OC3CC(C)(O)C(O)C(C)O3)C(O)C(C)O2)C(O)C(C)O1 (stereo not given)
inactive: dose: 1.0 mg/kg/injection, schedule: Q04DX004 (ip), vehicle: saline with Tween-80 104 % of control | dose: 2.0 mg/kg/injection, schedule: Q04DX004 (ip), vehicle: saline with Tween-80 112 % of control | dose: 4.0 mg/kg/injection, schedule: Q04DX004 (ip), vehicle: saline with Tween-80 107 % of control and 112 % of control | dose: 8.0 mg/kg/injection, schedule: Q04DX004 (ip), vehicle: saline with Tween-80 104 % of control and 108 % of control | dose: 16.0 mg/kg/injection, schedule: Q04DX004 (ip), vehicle: saline with Tween-80 107 % of control and 111 % of control | dose: 32.0 mg/kg/injection, schedule: Q04DX004 (ip), vehicle: saline with Tween-80 117 % of control | dose: 64.0 mg/kg/injection, schedule: Q04DX004 (ip), vehicle: saline with Tween-80 115 % of control

COc1cc(C(C)(C)C)cc(OC)c1C(O)(c1c(OC)cc(C(C)(C)C)cc1OC)c1c(OC)cc(C(C)(C)C)cc1OC
inactive: [8] 123 % of control | [1] 116 % of control | [2] 108 % of control | [3] 123 % of control

C=CCNc1nc2c(s1)c(C)c(O)c1ccccc12
inactive: dose: 37.5 mg/kg/injection, schedule: Q04DX004 (ip), vehicle: saline with Tween-80 98 % of control | dose: 75.0 mg/kg/injection, schedule: Q04DX004 (ip), vehicle: saline with Tween-80 88 % of control

O=C1c2cccc(NCCCNCCO)c2C(=O)c2cccc(NCCCNCCO)c21
inactive: dose: 12.5 mg/kg/injection, schedule: Q04DX004 (ip), vehicle: acid diluted with saline 116 % of control | dose: 25.0 mg/kg/injection, schedule: Q04DX004 (ip), vehicle: acid diluted with saline 99 % of control | dose: 50.0 mg/kg/injection, schedule: Q04DX004 (ip), vehicle: acid diluted with saline 91 % of control

O=c1c(O)c(O)c1=O.[NH2-].[NH2-].[NH2-].[NH2-].[NH2-].[Ru+5]
inactive: dose: 6.25 mg/kg/injection, schedule: Q04DX004 (ip), vehicle: suspension in saline 98 % of control | dose: 12.5 mg/kg/injection, schedule: Q04DX004 (ip), vehicle: suspension in saline 97 % of control | [7] 98 % of control

COC(=O)[C@@]12OC[C@]34[C@H]([C@@H](O)[C@@H]1O)[C@@]1(C)CC(=O)C(O)=C(C)[C@@H]1C[C@H]3OC(=O)[C@H](OC(=O)/C=C(\C)C(C)C)[C@@H]24
inactive: dose: 0.12 mg/kg/injection, schedule: Q04DX005 (ip), vehicle: saline 97 % of control and 101 % of control | dose: 0.13 mg/kg/injection, schedule: Q04DX004 (ip), vehicle: saline 97 % of control and 112 % of control and 124 % of control | dose: 0.13 mg/kg/injection, schedule: Q04DX005 (ip), vehicle: saline 117 % of control and 122 % of control

C=CCc1cn(C2CC(O)C(CO)O2)c(=O)[nH]c1=O (stereo not given)
inactive: [9] 99 % of control | dose: 100.0 mg/kg/injection, schedule: Q04DX004 (ip), vehicle: saline 93 % of control | dose: 200.0 mg/kg/injection, schedule: Q04DX004 (ip), vehicle: saline 93 % of control | dose: 400.0 mg/kg/injection, schedule: Q04DX004 (ip), vehicle: saline 101 % of control

CNC(=S)SC1=NS(=O)(=O)c2ccccc2N1
inactive: [6] 105 % of control | dose: 62.0 mg/kg/injection, schedule: Q04DX004 (ip), vehicle: Klucel (hydroxypropylcellulose) (HPC) 102 % of control | [10] 103 % of control | dose: 104.0 mg/kg/injection, schedule: Q04DX004 (ip), vehicle: Klucel (hydroxypropylcellulose) (HPC) 103 % of control | dose: 173.0 mg/kg/injection, schedule: Q04DX004 (ip), vehicle: Klucel (hydroxypropylcellulose) (HPC) 113 % of control | [11] 96 % of control | [12] 109 % of control

NC(C(=O)O)C1=CCCC1 (stereo not given)
inactive: [8] 102 % of control | [1] 99 % of control | [2] 98 % of control | [3] 98 % of control | [4] 87 % of control

COc1ccccc1-n1cc[n+](C)c1/C=N/O
inactive: dose: 25.0 mg/kg/injection, schedule: Q04DX004 (ip), vehicle: saline 101 % of control | [9] 101 % of control

Cc1nc2ccccc2c(N)c1-c1cc(C)c2c(C)nc3ccccc3c2n1
inactive: [13] 97 % of control | [14] 91 % of control | [5] 90 % of control and 94 % of control and 101 % of control | [6] 92 % of control and 98 % of control | [10] 96 % of control and 100 % of control | [11] 99 % of control | [12] 106 % of control

COc1ccc(CCN2C(=O)C(=O)N(C)C2=O)cc1OC
inactive: [5] 89 % of control | [6] 99 % of control | [12] 92 % of control

O=C1CCCCCC2=NC12 (stereo not given)
inactive: [13] 98 % of control | [14] 100 % of control and 105 % of control | [5] 105 % of control and 112 % of control | [6] 100 % of control and 113 % of control | [10] 103 % of control and 113 % of control

COc1cc2c(c3c1/c(=N/N(C)C)c1ccccc1n3C)C=CC(C)(C)O2
inactive: [8] 110 % of control | [1] 105 % of control | [2] 110 % of control | [3] 110 % of control

CC[C@@]1(O)C(=O)OCc2c1cc1n(c2=O)Cc2cc3cc(O)ccc3nc2-1
inactive: dose: 0.86 mg/kg/injection, schedule: Q04DX004 (ip), vehicle: suspension in saline 104 % of control | dose: 1.44 mg/kg/injection, schedule: Q04DX004 (ip), vehicle: suspension in saline 109 % of control | dose: 1.88 mg/kg/injection, schedule: Q04DX004 (ip), vehicle: suspension in saline 106 % of control | dose: 2.4 mg/kg/injection, schedule: Q04DX004 (ip), vehicle: suspension in saline 115 % of control | dose: 6.67 mg/kg/injection, schedule: Q04DX004 (ip), vehicle: suspension in saline 116 % of control
active: dose: 3.75 mg/kg/injection, schedule: Q04DX004 (ip), vehicle: suspension in saline 162 % of control
